Results taken from US9034886B2, “4-aminoquinazoline derivatives and uses thereof” (Shanghai Institute of Pharmaceutical Industry, priority 2011, dated 2015).

How the values were obtained:
[1] = test system: MDA-MB-435s human breast cancer cells; test: In vitro anti-proliferative effect, CCK-8 method, MDA-MB-435s; format: cell-based; settings: Homo sapiens, MDA-MB-435S
Summary of the method: (§1)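 Compounds were tested at 100 μM and 10 μM, and growth inhibition was measured by CCK-8 assay. Values are percent inhibition at each concentration.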

HDAC1 = HDAC1 (Homo sapiens (Human), UniProt Q13547); test: In vitro inhibition of subtype HDAC1 (HDAC1 Inhibitor Drug Screening Kit, Biovision); format: biochemical; settings: for inhibition at 1 µM / inhibition at 10 µM: read-out: % Inhibition towards HDAC1; for inhibitory activity against HDAC1 compared with MS-275: both concentrations 10 μM and 1 μM
Experimental: The in vitro inhibitory activities of the compounds towards the subtype HDAC1 were tested according to the instructions in the HDAC1 Inhibitor Drug Screening Kit (Biovision).
(1) The compounds to be tested were each individually prepared as 10 μM and 1 μM solutions and their inhibitory activities at these concentrations were tested.
Each dilution sample was placed in two wells and the enzyme inhibition IC50 of the compound was tested.

[2] = test system: Hut78 T lymphocytic leukemia cells; test: In vitro anti-proliferative effect, CCK-8 method, Hut78; format: cell-based; settings: Homo sapiens, HuT78; for inhibition at 10 µM / inhibition at 100 µM: read-out: Hut-78 (inhibition %)
Summary of the method: (§2)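 K562 and Hut78 cells exposed to compounds at 100 μM and 10 μM. Percent inhibition of proliferation determined by CCK-8 read-out.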

[3] = Maximum tolerance dose through intragastrical administration; format: in vivo; settings: mice, administrated intragastrically
Experimental: Forty ICR mice, half female and half male, weighing […] were divided into four groups, 10 mice in each group. After the mice were fasted for 6 h, the compound to be tested was administrated intragastrically to each group at a volume of 0.3 ml/10 g by using a sterile plastic syringe. General physical signs and the deaths of the animals were record at 1, 2 and 4 h after the administration. The animals were then observed continuously for 14 days and their weights, physical signs and deaths were observed and recorded every day. Dead animals were dissected to see if there was any visible pathological change in the animal's viscera and pathological examination was performed on suspicious tissues and organs. A part of the experimental results is as follows.

HDACs = test: In vitro inhibition of HDACs (HDAC Inhibitor Drug Screening Kit, Biovision K340-100); format: biochemical; settings: for inhibitory activity on HDACs compared with MS-275: concentrations of 2 mM, 200 μM, and 40 μM
Experimental: The in vitro inhibitory activities of the compounds towards HDACs were tested according to the instructions in the HDAC Inhibitor Drug Screening Kit (Biovision/Catalog #K340-100).
(1) The compounds to be tested were each individually prepared as 2 mM, 200 μM and 40 μM solutions and their inhibitory activities at these concentrations were tested.

[4] = test system: Colo320 human colorectal cancer cell lines; test: In vitro anti-proliferative effect, CCK-8 method, Colo320; format: cell-based; settings: Homo sapiens, COLO 320; for inhibition at 10 µM / inhibition at 100 µM: Colo320 cell strain, CCK-8 method; for inhibition at 10 µM: compound at 10 μM; for inhibition at 100 µM: compound at 100 μM
Summary of the method: as §1

[5] = test system: PC-3 human prostate cancer; test: In vitro anti-proliferative effect, CCK-8 method, PC-3; format: cell-based; settings: Homo sapiens; for inhibition at 10 µM / inhibition at 100 µM: PC-3 cell strain, CCK-8 method; for inhibition at 10 µM: compound at 10 μM; for inhibition at 100 µM: compound at 100 μM
Summary of the method: as §1

[6] = test system: A549 human lung cancer cells; test: In vitro anti-proliferative effect, CCK-8 method, A549; format: cell-based; settings: Homo sapiens, A549
Summary of the method: as §1

[7] = test system: PANC-1 human pancreatic cancer cells; test: In vitro anti-proliferative effect, CCK-8 method, PANC-1; format: cell-based; settings: Homo sapiens, PANC-1
Summary of the method: as §1

[8] = test system: K562 human chronic myelogenous leukemia cells; test: In vitro anti-proliferative effect, CCK-8 method, K562; format: cell-based; settings: Homo sapiens, K562
Summary of the method: as §2

[9] = test system: Jurkat E6-1 human T-cell lymphoma; test: In vitro anti-proliferative effect, CCK-8 method, Jurkat E6-1; format: cell-based; settings: Homo sapiens, Jurkat E6.1
Summary of the method: as §1

[10] = test system: Hep3B2.1-7 human liver cancer cells; test: In vitro anti-proliferative effect, CCK-8 method, Hep3B; format: cell-based; settings: Homo sapiens; for inhibition at 10 µM / inhibition at 100 µM: Hep3B cell strain, CCK-8 method; for inhibition at 10 µM: compound at 10 μM; for inhibition at 100 µM: compound at 100 μM
Summary of the method: as §1

Chain of HDAC1 (Q13547 whole entry): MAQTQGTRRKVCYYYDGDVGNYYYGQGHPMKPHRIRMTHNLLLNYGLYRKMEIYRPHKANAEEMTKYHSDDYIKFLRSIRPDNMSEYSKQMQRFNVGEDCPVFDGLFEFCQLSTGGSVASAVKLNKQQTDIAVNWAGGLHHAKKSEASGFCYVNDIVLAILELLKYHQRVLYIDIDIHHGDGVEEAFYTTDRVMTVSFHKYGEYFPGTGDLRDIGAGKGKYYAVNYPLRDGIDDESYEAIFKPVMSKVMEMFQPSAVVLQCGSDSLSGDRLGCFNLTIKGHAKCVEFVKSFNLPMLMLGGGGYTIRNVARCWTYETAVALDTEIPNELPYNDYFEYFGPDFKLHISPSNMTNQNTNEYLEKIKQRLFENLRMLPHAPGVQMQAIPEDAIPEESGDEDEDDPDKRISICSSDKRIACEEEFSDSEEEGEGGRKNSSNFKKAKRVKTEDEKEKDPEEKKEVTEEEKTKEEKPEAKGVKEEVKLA

Compound	inhibition at 10 µM [1] [%]	inhibition at 100 µM [1] [%]	inhibition at 1 µM (HDAC1) [%]	inhibition at 10 µM (HDAC1) [%]	inhibition at 10 µM [2] [%]	inhibition at 100 µM [2] [%]	maximum tolerance dose [3]	IC50 (HDACs) [nM]	Inhibition percentage (%) towards HDACs (HDACs; 40 μM) [%]	Inhibition percentage (%) towards HDACs (HDACs; 200 μM) [%]	Inhibition percentage (%) towards HDACs (HDACs; 2 mM) [%]	inhibition at 10 µM [4] [%]	inhibition at 100 µM [4] [%]	inhibition at 10 µM [5] [%]	inhibition at 100 µM [5] [%]	inhibition at 10 µM [6] [%]	inhibition at 100 µM [6] [%]	inhibition at 10 µM [7] [%]	inhibition at 100 µM [7] [%]	inhibition at 10 µM [8] [%]	also measured
Nc1ccccc1NC(=O)c1ccc(Nc2ncnc3ccc([N+](=O)[O-])cc23)cc1 [Compound V-11, N-(2-aminophenyl)-4-(6-nitroquinazoline-4-amino)benzamide]	30.6	42.4	26.2	33.4	28.5	84.6	over 2000 mg/kg	3110	4.1	11.1	49.0	2.6	4.1	21.9	18.8	15.3	12.9	24	21.1	20.4	inhibitory activity according to in vitro IC50 value against HDACs compared with MS-275 (HDACs): better inhibitory activities than MS-275; inhibition at 100 µM [8]: 32.3%; inhibition at 10 µM [9]: 18.6%; inhibition at 100 µM [9]: 26.3%; inhibition at 10 µM [10]: 22.3%; inhibition at 100 µM [10]: 43%
Nc1ccccc1NC(=O)c1ccc(Nc2ncnc3cc(F)ccc23)cc1 [Compound V-13, N-(2-aminophenyl)-4-(7-fluoroquinazoline-4-amino)benzamide]	27.5	89.1	53.1	83	19.8	54	over 5000 mg/kg	1140	1.0	20.1	50.0	0.9	34.3	-1.9	48.5	18.3	57.1	26	36.8	25	inhibitory activity against HDAC1 compared with MS-275 (HDAC1): superior to that of MS-275; inhibition at 100 µM [8]: 65.1%; inhibition at 10 µM [9]: 19.1%; inhibition at 100 µM [9]: 77.8%; inhibition at 10 µM [10]: 21.5%; inhibition at 100 µM [10]: 69.8%
Nc1ccc(F)cc1NC(=O)c1ccc(Nc2ncnc3c(F)cccc23)cc1 [Compound V-14, N-(2-amino-5-fluorophenyl)-4-(8-fluoroquinazoline-4-amino)benzamide]	19.5	63.9	1.48	28.9	22	91.1	over 2000 mg/kg	3770	46.8	67.1	94.8	-14.3	82.7	22.9	84.4	-17.6	72.2	-2.8	15.7	34	IC50 [2]: 55.8 nM; inhibitory activity according to in vitro IC50 value against HDACs compared with MS-275 (HDACs): better inhibitory activities than MS-275; inhibitory activity on HDACs compared with MS-275 (HDACs): significantly stronger inhibitory activities than MS-275; IC50 [4]: 27000 nM; IC50 [5]: 3570 nM; IC50 [6]: 5090 nM; IC50 [8]: 2810 nM; inhibition at 100 µM [8]: 88.7%; IC50 [9]: 1390 nM; inhibition at 10 µM [9]: 23.8%; inhibition at 100 µM [9]: 96.5%; IC50 ([10]; Hep3B): 16000 nM; inhibition at 10 µM [10]: 7.2%; inhibition at 100 µM [10]: 79.3%
COc1cc2ncnc(Nc3ccc(C(=O)Nc4ccccc4N)cc3)c2cc1OCCCN1CCOCC1 [Compound V-17, N-(2-aminophenyl)-4-[7-methoxy-6-(3-morpholinylpropoxy)quinazoline-4-amino]benzamide]	32.5	73.3	53.9	76.2	73.4	93.5	over 5000 mg/kg	1720	39.7	60.7	86.7	4.9	28.9	41.8	67.1	29.8	67.9	12	25.1	33.6	IC50 (HDAC1): 735 nM; inhibitory activity against HDAC1 compared with MS-275 (HDAC1): superior to that of MS-275; inhibitory activity according to in vitro IC50 value against HDACs compared with MS-275 (HDACs): better inhibitory activities than MS-275; inhibitory activity on HDACs compared with MS-275 (HDACs): significantly stronger inhibitory activities than MS-275; inhibition at 100 µM [8]: 72.4%; inhibition at 10 µM [9]: 20.3%; inhibition at 100 µM [9]: 80.2%; inhibition at 10 µM [10]: 18.4%; inhibition at 100 µM [10]: 45.7%
COc1cc2ncnc(Nc3ccc(C(=O)Nc4cc(F)ccc4N)cc3)c2cc1OCCCN1CCOCC1 [Compound V-18, N-(2-amino-5-fluorophenyl)-4-[7-methoxy-6-(3-morpholinylpropoxy)quinazoline-4-amino]benzamide]	22.7	81.4	59.8	80.8	39.9	82.3	over 2000 mg/kg	1020	30.4	56.8	66.0	7.7	56.3	45.2	72.2	9.5	79.1	0.9	23.9	58.5	IC50 (HDAC1): 330 nM; inhibitory activity against HDAC1 compared with MS-275 (HDAC1): superior to that of MS-275; inhibition at 100 µM [8]: 87.5%; inhibition at 10 µM [9]: 76.6%; inhibition at 100 µM [9]: 95.7%; inhibition at 10 µM [10]: 13.8%; inhibition at 100 µM [10]: 75.1%
CS(=O)(=O)CCNCc1ccc(-c2ccc3ncnc(Nc4ccc(C(=O)Nc5cc(F)ccc5N)cc4)c3c2)o1 [Compound V-20, N-(2-amino-5-fluorophenyl)-4-[6-(5-((2-(methylsulfonyl)ethylamino)methyl)furyl)quinazoline-4-amino]benzamide]	17	57.8	53.5	77.4	44.4	85.7	over 5000 mg/kg	1220	28.2	56.9	67.5	6.5	58.8	48.1	75.5	0	41.3	-1.7	52	64.3	inhibitory activity against HDAC1 compared with MS-275 (HDAC1): superior to that of MS-275; inhibition at 100 µM [8]: 92.9%; inhibition at 10 µM [9]: 84.8%; inhibition at 100 µM [9]: 89.4%; inhibition at 10 µM [10]: 23.5%; inhibition at 100 µM [10]: 60%
